# Paper PMC4758734, “Purification and Characterization of Glutaminase Free Asparaginase from Enterobacter cloacae: In-Vitro Evaluation of Cytotoxic Potential against Human Myeloid Leukemia HL-60 Cells” (PLoS ONE, 2016)
# Tested on: T1, glutaminase free asparaginase from Enterobacter cloacae
# T1 construct: gene ansB; native, purified from culture supernatant (ammonium sulphate, DEAE-cellulose, Sephadex G-100); EC 3.5.1.1
# Test: Nesslerization (ammonia release), Lineweaver-Burk plot
# Assay type: biochemical
# Details: 0.05 M phosphate buffer pH 7.5, 37°C; L-asparagine 0.2–24 mM
compound,measurement,value
NC(=O)C[C@H](N)C(=O)O [L-asparagine],Km,1580 µM
